Laboratory results: article PMC8262356, “SLC26A6-selective inhibitor identified in a small-molecule screen blocks fluid absorption in small intestine” (JCI Insight, 2021)

Biological target: T1, PAT1 (murine slc26a6) (Mus musculus, UniProt Q8CIW6)
T1 construct: host or cells: Fischer rat thyroid (FRT) cells, lentiviral transduction (pLVX-IRES-mCherry-slc26a6), clonal line FRT-YFP-slc26a6
T1 sequence (Q8CIW6 24-758 limits assumed): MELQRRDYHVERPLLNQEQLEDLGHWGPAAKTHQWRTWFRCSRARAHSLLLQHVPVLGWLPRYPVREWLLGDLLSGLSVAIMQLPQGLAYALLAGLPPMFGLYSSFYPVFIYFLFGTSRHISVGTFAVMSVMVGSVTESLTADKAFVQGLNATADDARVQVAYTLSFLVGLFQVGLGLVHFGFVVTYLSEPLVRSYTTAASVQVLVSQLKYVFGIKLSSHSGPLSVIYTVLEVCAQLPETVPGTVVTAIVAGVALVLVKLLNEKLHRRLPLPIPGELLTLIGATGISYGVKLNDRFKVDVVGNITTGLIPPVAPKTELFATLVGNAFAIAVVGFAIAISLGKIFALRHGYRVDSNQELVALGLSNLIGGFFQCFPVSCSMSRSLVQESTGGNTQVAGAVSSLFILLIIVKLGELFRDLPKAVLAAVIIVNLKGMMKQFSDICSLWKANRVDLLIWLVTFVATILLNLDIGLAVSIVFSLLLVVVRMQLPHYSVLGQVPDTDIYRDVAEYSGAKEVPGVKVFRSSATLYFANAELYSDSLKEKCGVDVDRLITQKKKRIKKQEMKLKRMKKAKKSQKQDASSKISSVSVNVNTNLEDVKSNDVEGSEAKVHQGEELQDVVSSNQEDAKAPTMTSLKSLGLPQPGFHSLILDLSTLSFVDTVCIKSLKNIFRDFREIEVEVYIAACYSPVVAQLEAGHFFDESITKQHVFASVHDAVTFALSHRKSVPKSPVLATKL
Assay: PAT1-mediated Cl-/SCN- exchange, YFP fluorescence quenching in FRT cells
Format: cell-based
Details: read-out: IC50, inhibition of PAT1-mediated Cl-/SCN- exchange
Experimental: As PAT1 functions as a general monovalent anion exchanger, PAT1inh-B01 inhibition was studied for different modes of anion exchange. […] To measure Cl^–/HCO3^– exchange, the time course of cytoplasmic pH was measured, using BCECF as a pH indicator, in response to a gluconate gradient to drive exchange of cytoplasmic Cl^– with extracellular HCO3^– producing cytoplasmic alkalinization (Figure 2B) as done before for DRA and pendrin ([7], [10], [11]).
Figure 2 PAT1inh-B01 inhibition of PAT1-mediated anion exchange. (A) YFP fluorescence quenching curves (left), as in Figure 1B, for inhibition of PAT1-mediated exchange of Cl^– for SCN^–, with concentration dependence of PAT1inh-B01 effect (right) (mean ± SEM, n = 3). (B) Inhibition of Cl^–/HCO3^– exchange measured in BCECF-loaded FRT cells by PAT1inh-B01 (mean ± SEM, n = 16–32). (C) Time course of PAT1 inhibition following addition of 1 μM PAT1inh-B01 to cells (mean ± SEM, n = 3). (D) Effects of second messenger signaling on PAT1-mediated Cl^–/I^– exchange. YFP fluorescence quenching curves (left) and summary data (right) following cell exposure to agonists of cAMP (20 μM forskolin + 200 μM IBMX), cGMP (100 μM 8-Br-cGMP) and Ca^+2 (100 μM ATP), or vehicle control (1% DMSO). Mean ± SEM, n = 16 experiments per group, differences not significant by 1-way ANOVA and post hoc Newman-Keuls multiple comparisons test.

Cc1c(Br)c(C(F)(F)F)nn1CC(=O)N1CCc2nc3cc(-c4ccccc4)[nH]n3c(=O)c2C1 [PAT1inh-B01]
IC50: 260 nM
